In patent US20210277009A1, “PRMT5 INHIBITORS” (Merck Sharp & Dohme Corp., priority 2018, published 2021) one finds EC50 data, which are given here for 18 molecules.

Where a name gives a salt, the structure may show the parent alone. Read-outs that look alike come from different tables or passages of the source.

Assay [1] deals with symmetric dimethylation of arginine (SDMA) of PRMT5 substrates in MCF-7 cells. The experiment in a line: PRMT5 Cell Target Engagement (TE) Assay. Format: cell-based. The settings on record: treated for 3 days, nuclear SDMA by high content imaging, top concentration 10000 nM. The source says:
The PRMT5 TE assay is a biomarker assay for identifying compounds that inhibit symmetric dimethylation of arginine (SDMA) of PRMT5 substrates. The following substrates have been reported for PRMT5: histone H2A and H4 R3, Histone H3 R2, Histone H3 R8, spliceosome Sm proteins, ribosomal protein RPS10, p53, FEN1, nudeoplasmin, nucleolin, EGFR and EBNA. The assay will focus on detecting symmetrically dimethylated nuclear proteins using high content imaging technology. Detection of the expression of symmetrically dimethylated nuclear proteins is through a mixture of primary rabbit monoclonal antibodies to SDMA (CST 13222), which in turn recognized by an Alexafluor 488 dye-conjugated anti-rabbit IgG secondary antibody. The IN Cell Analyzer 2200 or Opera-Phenix measures nuclear Alexafluor 488 fluorescent dye intensity that is directly related to the level of expression of symmetrically dimethylated nuclear proteins at the single cell level. Nuclear AF488 dye intensities are compared to the mean value for DMSO treated cells (MIN) to report percent of inhibition for each compound-treated well.
In this assay, the cell potency (EC50) of each compound was determined from a ten point (1:3 serial dilution; top compound concentration of 10000 nM) titration curve using the following outlined procedure. Each well of a BD falcon collagen coated black/clear bottom 384-well plate was seeded with 4000 MCF-7 cells in 30 μl media and allowed to attach for 5 h. Media is ATCC-formulated Eagle's Minimum Essential Medium, Catalog No. 30-2003. To make the complete growth medium, the following components were added to the base medium: 0.01 mg/ml human recombinant insulin; fetal bovine serum to a final concentration of 10%. Additional 30 μl of media containing 2× compounds were added to each well. Cells were treated for 3 days in 37° C. CO2 incubator. On day 3, cells were fixed with Cytofix, permeablized with 0.4% Triton-X-100/Cytofix, and washed with D-PBS without Ca/Mg. Cells were blocked with Licor Odessey blocking reagent for 1 h at room temperature, followed by incubation with anti-SDMA (1:1000) antibody at 4° C. overnight. 1° antibody was removed, followed by three washings with DPBS without Ca/Mg and 0.05% Tween20. Hoechst (5 μg/ml), Cell Mask deep stain (1:2000) and Alexa488-conjugated goat anti-rabbit IgG (2 μg/mL) was added for 1 hour at room temperature. A final washing step (three washes) was performed before sealing plate for imaging on In Cell Analyzer 2200 or Opera-Phenix. Images from analyzer were uploaded to Columbus (at WP or BOS) for image analysis. IC50 values were determined by 4 parameters robust fit of percent fluorescence units vs. (Logic) compound concentrations.

In assay [2] the target is T1, PRMT5-MEP50 enzyme complex (Homo sapiens, UniProt O14744).
T1 construct: 1.25 nM of Full-length (FL)-PRMT5-MEP50 enzyme complex; made in house; host or cells: baculovirus-transfected Sf21 cells
Nature of the assay: PRMT5-MEP50 Enzyme Methylation Assay. It counts as biochemical. How it is done: PRMT5-MEP50 biochemical assay is a direct measurement of the methylation activity of the enzyme complex on a short peptide substrate derived from the N-terminus of H4 histone. Methylation experiment is performed with recombinant PRMT5-MEP50 protein complex. The assessment of inhibitory effect of small molecules is measured by tire effectiveness of the compounds to inhibit tins reaction (EC50).
In this assay, the potency (EC50) of each compound was determined from a twenty-point (1:2 serial dilution; top compound concentration of 100000 nM) titration curve using the following outlined procedure. To each well of a white ProxiPlus 384 well-plate, 100 nL of compound (1% DMSO in final assay volume of 10 μL) was dispensed, followed by the addition of 8 μL of 1× assay buffer (50 mM Bicine pH 8.0, 1 mM DTT, 0.004% Tween20, 0.01% BSA) containing 1.25 nM of Full-length (FL)-PRMT5-MEP50 enzyme complex (recombinant proteins from baculovirus-transfected Sf21 cells: FL-PRMT5; MW=[…] and FL-MEP50; MW=38614) and 1 μL of 150 μM S-(5′-Adenosyl)-L-Methionine Chloride (SAM). Plates were sealed and placed in a 37° C. humidified chamber for a 60 minutes pre-incubation with compound. Subsequently, each reaction was initiated by the addition of 1 μL 1× assay buffer containing 750 nM biotinylated H4R3(Mel) peptide. The final reaction in each well of 10 μL consists of 1.0 nM PRMT5-MEP50, 75 nM biotinylated-peptide, and […] SAM. Methylation reactions were allowed to proceed for 150 minutes in a sealed plate at 37° C. Reactions were immediately quenched by the addition of 1 μL of 5% formic acid. Plates were then frozen and shipped to SAMDITM Tech Inc. to determine the percent conversion from H4R3(Mel) to H4R3(Me2). Dose-response curves were generated by plotting percent effect (% product conversion; Y-axis) vs. Log 10 compound concentrations (X-axis). EC50 values were determined by non-linear regression according to models for either sigmoidal (4 parameters) or biphasic (7 parameters) dose-response curves.

The mark [3] stands for this setting: single EC50 from 4 parameters single site sigmoidal model, or first EC50 of 7 parameters biphasic model, 1.0 nM PRMT5-MEP50, H4R3(Me1) peptide, SAM, read-out: Enzyme Methylation Assay (EC50 or EC50_1).
Where [4] appears, read: second EC50 of 7 parameters biphasic model, read-out: Enzyme Methylation Assay (EC50_2).

T1 sequence (O14744 whole entry): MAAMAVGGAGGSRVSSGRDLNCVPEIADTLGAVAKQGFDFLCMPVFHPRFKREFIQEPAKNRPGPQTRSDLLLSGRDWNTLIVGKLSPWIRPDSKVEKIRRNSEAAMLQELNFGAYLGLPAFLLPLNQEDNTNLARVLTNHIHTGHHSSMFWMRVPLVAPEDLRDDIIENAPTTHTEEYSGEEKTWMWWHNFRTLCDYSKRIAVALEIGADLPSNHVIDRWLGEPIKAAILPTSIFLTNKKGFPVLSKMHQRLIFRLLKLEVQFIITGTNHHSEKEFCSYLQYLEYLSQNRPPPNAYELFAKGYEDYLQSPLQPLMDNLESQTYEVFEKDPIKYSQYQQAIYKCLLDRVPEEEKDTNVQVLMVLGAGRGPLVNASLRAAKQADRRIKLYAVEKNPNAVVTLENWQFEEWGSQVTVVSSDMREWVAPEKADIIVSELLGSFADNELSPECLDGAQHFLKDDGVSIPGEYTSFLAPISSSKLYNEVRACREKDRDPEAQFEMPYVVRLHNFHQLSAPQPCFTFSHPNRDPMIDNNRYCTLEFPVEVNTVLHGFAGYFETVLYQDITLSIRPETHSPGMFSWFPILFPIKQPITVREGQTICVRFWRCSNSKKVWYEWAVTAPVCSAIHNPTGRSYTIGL
T1 sequence (Q9BQA1 whole entry partner): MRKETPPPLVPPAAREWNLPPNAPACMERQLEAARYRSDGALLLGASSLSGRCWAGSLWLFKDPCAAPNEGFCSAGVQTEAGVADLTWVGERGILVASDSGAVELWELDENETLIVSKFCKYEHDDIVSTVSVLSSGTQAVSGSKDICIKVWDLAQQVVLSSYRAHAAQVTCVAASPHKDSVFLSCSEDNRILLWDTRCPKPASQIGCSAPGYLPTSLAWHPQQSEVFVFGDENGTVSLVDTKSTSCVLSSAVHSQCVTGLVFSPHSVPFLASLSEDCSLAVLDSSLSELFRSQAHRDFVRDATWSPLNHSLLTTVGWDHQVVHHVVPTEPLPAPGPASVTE

As for `Nc1nc2cc(CC[C@H]3S[C@@H](n4ccc5c(N)ncnc54)[C@H](O)[C@@H]3O)ccc2cc1Br` [Example 12, (2R,3S,4R,5R)-2-(2-(2amino-3bromoquinolin-7-yl)ethyl)-5-(4-amino-7H-pyrrolo[2,3-d]pyrimidin-7-yl)tetrahydrothiophene-3,4-diol], the EC50 came to 1.3 nM in assay [1] (Homo sapiens, MCF7, 72 h) and 0.7 nM in assay [2] (setting [3]).

For `Nc1nc2cc(CC[C@@H]3S[C@@H](n4ccc5c(N)ncnc54)[C@H](O)[C@@H]3O)ccc2cc1Br` [Example 13, (2S,3S,4R,5R)-2-(2-(2-amino-3-bromoquinolin-7-yl)ethyl)-5-(4-amino-7H-pyrrolo[2,3-d]pyrimidin-7-yl)tetrahydrothiophene-3,4-diol], the EC50 in assay [1] (Homo sapiens, MCF7, 72 h) is 3.2 nM; in assay [2] (setting [3]) it was 0.3 nM.

Turning to `Nc1ccc2ccc(CC[C@H]3S[C@@H](n4ccc5c(N)ncnc54)[C@H](O)[C@@H]3O)cc2n1` [Example 14, (2R,3R,4S,5R)-2-(4-amino-7H-pyrrolo[2,3-d]pyrimidin-7-yl)-5-(2-(2-aminoquinolin-7-yl)ethyl)tetrahydrothiophene-3,4-diol TFA salt], the EC50 in assay [1] (Homo sapiens, MCF7, 72 h) amounted to 0.7 nM; in assay [2] (setting [3]), 0.3 nM.

With `Nc1ccc2ccc(CC[C@@H]3S[C@@H](n4ccc5c(N)ncnc54)[C@H](O)[C@@H]3O)cc2n1` [Example 15, (2R,3R,4S,5S)-2-(4-amino-7H-pyrrolo[2,3-d]pyrimidin-7-yl)-5-(2-(2-aminoquinolin-7-yl)ethyl)tetrahydrothiophene-3,4-diol], the EC50 in assay [1] (Homo sapiens, MCF7, 72 h) amounted to 1.4 nM; in assay [2] (setting [3]) it was 0.9 nM.

Regarding `Cc1ncnc2c1ccn2[C@@H]1S[C@@H](CCc2ccc3ccc(N)nc3c2)[C@@H](O)[C@H]1O` [Example 16, (2S,3S,4R,5R)-2-[2-(2-aminoquinolin-7-yl)ethyl]-5-(4-methyl-7H-pyrrolo[2,3-d]pyrimidin-7-yl)tetrahydrothiophene-3,4-diol], the EC50 in assay [1] (Homo sapiens, MCF7, 72 h) worked out at 1.6 nM; in assay [2] (setting [3]), 1.7 nM.

Take `Cc1ncnc2c1ccn2[C@@H]1S[C@H](CCc2ccc3ccc(N)nc3c2)[C@@H](O)[C@H]1O` [Example 17]: the EC50 turned out to be 0.6 nM in assay [1] (Homo sapiens, MCF7, 72 h) and 0.4 nM in assay [2] (setting [3]).

For the molecule `Cc1ncnc2c1ccn2[C@@H]1S[C@H](CCc2ccc3cc(Br)c(N)nc3c2)[C@@H](O)[C@H]1O` [Example 18, (2R,3S,4R,5R)-2-(2-(2-amino-3-bromoquinolin-7-yl)ethyl)-5-(4-methyl-7H-pyrrolo[2,3-d]pyrimidin-7-yl)tetrahydrothiophene-3,4-diol], the EC50 in assay [1] (Homo sapiens, MCF7, 72 h) came to 5 nM; in assay [2] (setting [3]), 2.2 nM.

On to `Cc1ncnc2c1ccn2[C@@H]1S[C@@H](CCc2ccc3cc(Br)c(N)nc3c2)[C@@H](O)[C@H]1O` [Example 19], for which the EC50 in assay [1] (Homo sapiens, MCF7, 72 h) was 8.4 nM; in assay [2] (setting [4]), 50.1 nM; in assay [2] (setting [3]) it was 0.4 nM.

Take `Cc1ncnc2c1ccn2[C@@H]1S[C@H](CCc2ccc3cc(C(F)(F)F)c(N)nc3c2)[C@@H](O)[C@H]1O` [Example 20, (2R,3S,4R,5R)-2-{2-[2-amino-3-(triflnoromethyl)quinolin-7-yl]ethyl}-5-(4-methyl-7H-pyrrolo[2,3-d]pyrimidin-7-yl)tetrahydrothionhene-3,4-diol]: the EC50 in assay [1] (Homo sapiens, MCF7, 72 h) is 741 nM; in assay [2] (setting [4]) it was 120 nM; in assay [2] (setting [3]), 0.7 nM.

With `Cc1ncnc2c1ccn2[C@@H]1S[C@@H](CCc2ccc3cc(C(F)(F)F)c(N)nc3c2)[C@@H](O)[C@H]1O` [Example 21, (2S,3S,4R,5R)-2-{2-[2-amino-3-(trifluoromethyl)quinolin-7-yl]ethyl}-5-(4-methyl-7H-pyrrolo[2,3-d]pyrmidin-7-yl)tetrahydrothiophene-3,4-diol], the EC50 in assay [1] (Homo sapiens, MCF7, 72 h) is at least 10000 nM; in assay [2] (setting [3]) it was 7.4 nM.

Turning to `Cc1ncnc2c1ccn2[C@@H]1S[C@H](CCc2ccc3cc(F)c(N)nc3c2)[C@@H](O)[C@H]1O` [Example 22, (2R,3S,4R,5R)-2-[2-(2-amino-3-fluoroquinolin-7-yl)ethyl]-5-(4-methyl-7H-pyrrolo[2,3-d]pyrimidin-7-yl)tetrahydrodrothiophene-3,4-diol], the EC50 worked out at 5.9 nM in assay [1] (Homo sapiens, MCF7, 72 h) and 10.1 nM in assay [2] (setting [3]).

For `Cc1ncnc2c1ccn2[C@@H]1S[C@@H](CCc2ccc3cc(F)c(N)nc3c2)[C@@H](O)[C@H]1O` [Example 23, (2S,3S,4R,5R)-2-[2-(2-amino-3-fluoroquinolin-7-yl)ethyl]-5-(4-methyl-7H-pyrrolo[2,3-d]pyrimidin-7-yl)tetrahydrothiophene-3,4-diol], the EC50 in assay [1] (Homo sapiens, MCF7, 72 h) came to 41.9 nM; in assay [2] (setting [3]), 58.3 nM.

As for `Cc1ncnc2c1ccn2[C@@H]1S[C@H](CCc2ccc3cc(Cl)c(N)nc3c2)[C@@H](O)[C@H]1O` [Example 24], the EC50 came out at 17.4 nM in assay [1] (Homo sapiens, MCF7, 72 h) and 1.5 nM in assay [2] (setting [3]).

With `Cc1ncnc2c1ccn2[C@@H]1S[C@@H](CCc2ccc3cc(Cl)c(N)nc3c2)[C@@H](O)[C@H]1O` [Example 25, (2S,3S,4R,5R)-2-[2-(2-amino-3-chloroquinolin-7-yl)ethyl]-5-(4-methy1-7H-pyrrolo[2,3-d]pyrimidin-7-yl)tetrahydrothiophene-3,4-diol], the EC50 in assay [1] (Homo sapiens, MCF7, 72 h) was 8.4 nM; in assay [2] (setting [3]), 1.3 nM.

Turning to `Cc1ncnc2c1ccn2[C@@H]1S[C@H](CCc2ccc3ccc(NCC(F)F)nc3c2)[C@@H](O)[C@H]1O` [Example 26, (2R,3S,4R,5R)-2-(2-{2-[(2,2-difluoroethyl)amino]quinolin-7-yl}ethyl)-5-(4-methyl-7H-pyrrolo[2,3-d]pyrimidin-7-yl)tetrahydrothiophene-3,4-diol], the figures for the EC50 in assay [1] and in assay [2] (setting [3]) were 10.5 nM and 59.6 nM, respectively.

As for `C[C@]1(CCc2ccc3cc(Br)c(N)nc3c2)S[C@@H](n2ccc3c(N)ncnc32)[C@H](O)[C@@H]1O` [Example 30], the EC50 in assay [1] (Homo sapiens, MCF7, 72 h) is 0.5 nM; in assay [2] (setting [3]), 0.3 nM.

As to `C[C@]1(CCc2ccc3cc(Br)c(N)nc3c2)S[C@@H](n2ccc3c(Cl)ncnc32)[C@H](O)[C@@H]1O` [Example 31, (2R,3S,4R,5R)-2-(2-(2-amino-3-bromoquinolin-7-yl)ethyl)-5-(4-chloro-7H-pyrrolo[2,3-d]pyrimidin-7-yl)-2-methyltetrahydrothiophene-3,4-diol], the EC50 in assay [1] (Homo sapiens, MCF7, 72 h) came out at 53.4 nM; in assay [2] (setting [3]) it was 0.7 nM.

Turning to `Cc1ncnc2c1ccn2[C@@H]1S[C@](C)(CCc2ccc3cc(Br)c(N)nc3c2)[C@@H](O)[C@H]1O` [Example 32], the EC50 in assay [1] (Homo sapiens, MCF7, 72 h) was found to be 5.6 nM; in assay [2] (setting [3]), 0.6 nM.
